US10400274B2, “Fluorogenic probes and their use in quantitative detection of target RNA sequences” (JAN BIOTECH, INC., priority 2016, dated 2019)

Key:
[1] = test system: synthetic HIV RNA targets; experiment: qLDR probe set testing against synthetic HIV RNA targets; conditions: initial testing with synthetic HIV RNA targets
Protocol: The qLDR reaction contained optimized probe concentrations at 10-100 pM and a total reaction volume of 50 μL. The qLDR reaction for each probe set was optimized against the commensurate synthetic HIV RNA targets using fluorescence microscopy and fluorescence emission in a 96-well format in a desktop fluorometer, with readings normalized to background.

[2] = test system: cellular HIV RNA; experiment: HIV qLDR on CD4-enriched PBMC lysates from HIV- and HIV+ participants; type: cell-based, human; conditions: FIG. 10a-b; for detection of cellular HIV RNA in HIV+ HAART (latent) samples / detection of cellular HIV RNA in HIV- samples: CD4-enriched PBMC lysates, 20 mL blood; for detection between latent and HIV+ non-HAART (active) samples: including viremic participants and elite controllers
Protocol: For human sample testing (FIG. 10a-b) by HIV qLDR, CD4-enriched PBMC from HIV− and HIV+ participants were tested by the HIV qLDR probes SEQ ID NO: 9/SEQ ID NO: 10 for 2 kb tat-rev transcripts and SEQ ID NO: 5/SEQ ID NO: 6 for 9 kb and 4 kb transcripts. Lysates were tested from five individuals/class. Tests were performed in triplicate with 20 mL blood.

[3] = test system: HIV RNA of ACH-2 cells; experiment: HIV qLDR on PMA-activated ACH-2 cells in A3.01 cells (latent vs. active); type: cell-based; conditions: 10 ACH-2 cells in 10^6 A3.01 cells; PMA 1 μM for 0, 3, 8, 24 hr; FIG. 9
Protocol: For cell line testing (FIG. 9), ACH-2 and A3.01 cells were grown in T-75 flasks and plated at 1 mL per well in a 24-well culture plate in RPMI medium. After the wells reached 60% confluency, cells were activated for 0, 3, 8, and 24 hr with PMA (phorbal 12-myristate 13-acetate) at 1 μM final concentration per well. The experiment was performed such that each activation time endpoint represented the same total growth time. The activated ACH-2 cells were harvested from each well and counted. After preservation and shipping in 90% FBS/10% DMSO at −80° C., the cell suspensions were recounted, diluted and added at 10 cells into 10^6 A3.01 cells activated for the matching time period. HIV qLDR, using probes SEQ ID NO: 9/SEQ ID NO: 10 for 2 kb tat-rev transcripts, SEQ ID NO: 1/SEQ ID NO: 2 for 9 kb transcripts, and SEQ ID NO: 1/SEQ ID NO: 2 and SEQ ID NO: 5/SEQ ID NO: 6 for 4 kb transcripts, was performed on the cells and fluorometric readings in a 96-well plate format were normalized to background. […] Thus, the ratio of cell-based tat-rev to 4 kb/9 kb HIV RNA levels may be a useful measure of latent to active cell number.

[4] = test system: HIV pol/protease region; experiment: HIV qLDR compared with HIV RT-qPCR on human peripheral blood samples; type: cell-based; conditions: CD4+ T cells for qLDR, blood plasma for RT-qPCR; FIG. 11
Protocol: For human sample testing comparison with HIV RT-qPCR (FIG. 11), blood plasma was used for RT-qPCR and CD4+ T cells were used for qLDR. RT-qPCR was performed using primers and probe to the HIV gag-pol region, as described in Livak et al., 1995, for best comparison with HIV qLDR with probes SEQ ID NO: 1/SEQ ID NO: 2 to the HIV pol/protease region. HIV RNA was isolated from blood plasma samples prior to RT-qPCR. An RT-qPCR standard was prepared by in vitro transcription of a synthetic HIV T7 plasmid, and RNA copy number was determined using a standard curve generated with the RT-qPCR standard.

Row | Substance | detection efficiency [1] | detection of cellular HIV RNA in HIV+ HAART (latent) samples [2] | detection of cellular HIV RNA in HIV- samples [2] | detection between latent and HIV+ non-HAART (active) samples [2] | change of fluorescence level through activation time course [3] | correlation of HIV qLDR results with HIV RT-PCR viremia results [4]
1 | SEQ ID NO: 5/SEQ ID NO: 6: fluorogenic probe pair SEQ ID NO: 5 (Ald-2) and 6 (Ind), HIV-1 gp160/41, detects 4 kb spliced and 9 kb RNA (chain 1 ATAGTGCTTCCTGCT; chain 2 GTCATTGAGGCTGCG; fluorogenic labels; Latent HIV-1 qLDR Oligonucleotide Probe; (1)..(1) Fluorogenic probe moiety attachment position on probe sequence; (15)..(15) Fluorogenic probe moiety attachment position on probe sequence) | comparable detection efficiency | successfully detected | not in HIV—samples | differential detection | marked increase | –
2 | SEQ ID NO: 1/SEQ ID NO: 2: fluorogenic probe pair SEQ ID NO: 1 (Ald-1) and 2 (Ind), HIV-1 pol/protease, detects full length 9 kb RNA (chain 1 CCTGTATCTAATAGAGC; chain 2 TCTAATACTGTATCATCT; fluorogenic labels; Latent HIV-1 qLDR Oligonucleotide Probe; (1)..(1) Fluorogenic probe moiety attachment position on probe sequence; (18)..(18) Fluorogenic probe moiety attachment position on probe sequence) | comparable detection efficiency | – | – | – | marked increase | closely correlated
3 | SEQ ID NO: 9/SEQ ID NO: 10: fluorogenic PNA probe pair SEQ ID NO: 9 (Ald-1) and 10 (Ind), tat-rev, detects spliced 2 kb HIV-1 RNA (chain 1 CTTTG; chain 2 TGGGT; PNA; fluorogenic labels; Latent HIV-1 qLDR Oligonucleotide Probe; (1)..(1) Fluorogenic probe moiety attachment position on probe sequence; (1)..(5) Peptide nucleic acid 5′ Ald-CTTTG-DMLys-DMLys- CONH2; (1)..(5) Peptide nucleic acid 3′ Ind-TGGGT-DMLys-DMLys- CONH2; (5)..(5) Fluorogenic probe moiety attachment position on probe sequence) | comparable detection efficiency | successfully detected | not in HIV—samples | differential detection | relatively little increase | –
